Experimental data as given in patent US20250374926A1, “NOVEL DERIVATIVES OF NON-CODED AMINO ACIDS AND THEIR USE IN CROP PROTECTION” (FORTEPHEST LTD., priority 2022, published 2025).
Structures can show the parent of a compound that is named as a salt.

The molecules below were run on Trifolium (assay: Post-emergence herbicidal effect on potted weeds). Settings: 2-3 true leaves, up to 5 mg/pot, scale 0 (dead plants) to 5 (healthy, as control).
Type: in vivo
Method: (§1) Weed seeds were sawn in 0.3-liter pots containing medium-heavy clay-loam soil from organic fields (55% clay, 23% silt, 20% sand, 2% organic matter, pH 7.1). The experiment was conducted in a completely randomized design. Each treatment was replicated three times (3 pots). Each compound was typically tested on a weed panel which included Amaranth, Abutilon, Malva, Silybum, and Sinapis. The herbicides were applied at doses from 0 (control) to 5 mg/pot. The herbicides were applied on grown plants at stage 2-3 true leaves (post-emergence treatment). The plants were grown in the mesh house during the entire experiment. Plant development at 6, 12, 19, 26, and 32 days after application (DAA) was evaluated on a scale of 0 to 5, in which 0 represents dead plants, and 5 represents healthy plants similar or not different from Control. In the context of the invention, the herbicidal effect was expressed as a score calculated as an average of assessments of plants' vigor, height, and leaf color.

Row | Structure (SMILES) | Average Herbicidal Effect, score
1 | CCOC(=O)CSc1ccc(F)c(Br)n1 [compound 7114, ethyl 2-[(6-bromo-5-fluoropyridin-2-yl)sulfanyl]acetate] | 4

What follows are molecules tested on Amaranth (assay: Post-emergence herbicidal effect on potted weeds). Settings: 2-3 true leaves, up to 5 mg/pot, scale 0 (dead plants) to 5 (healthy, as control).
Type: in vivo
Method: as §1

Row | Structure (SMILES) | Average Herbicidal Effect, score
2 | CCOC(=O)CSc1ccc(F)c(Br)n1 [compound 7114, ethyl 2-[(6-bromo-5-fluoropyridin-2-yl)sulfanyl]acetate] | 3

These molecules were tested on Abutilon (assay: Post-emergence herbicidal effect on potted weeds). Settings: 2-3 true leaves, up to 5 mg/pot, scale 0 (dead plants) to 5 (healthy, as control).
Type: in vivo
Method: as §1

Row | Structure (SMILES) | Average Herbicidal Effect, score
3 | CCOC(=O)CSc1ccc(F)c(Br)n1 [compound 7114, ethyl 2-[(6-bromo-5-fluoropyridin-2-yl)sulfanyl]acetate] | 5

What follows are molecules tested on Sinapis (assay: Post-emergence herbicidal effect on potted weeds). Settings: 2-3 true leaves, up to 5 mg/pot, scale 0 (dead plants) to 5 (healthy, as control).
Type: in vivo
Method: as §1

Row | Structure (SMILES) | Average Herbicidal Effect, score
4 | CCOC(=O)CSc1ccc(F)c(Br)n1 [compound 7114, ethyl 2-[(6-bromo-5-fluoropyridin-2-yl)sulfanyl]acetate] | 4

Each molecule was assayed on Silybum (assay: Post-emergence herbicidal effect on potted weeds). Settings: 2-3 true leaves, up to 5 mg/pot, scale 0 (dead plants) to 5 (healthy, as control).
Type: in vivo
Method: as §1

Row | Structure (SMILES) | Average Herbicidal Effect, score
5 | CCOC(=O)CSc1ccc(F)c(Br)n1 [compound 7114, ethyl 2-[(6-bromo-5-fluoropyridin-2-yl)sulfanyl]acetate] | 5

What follows are molecules tested on Lactuca (assay: Post-emergence herbicidal effect on potted weeds). Settings: 2-3 true leaves, up to 5 mg/pot, scale 0 (dead plants) to 5 (healthy, as control).
Type: in vivo
Method: as §1

Row | Structure (SMILES) | Average Herbicidal Effect, score
6 | CCOC(=O)CSc1ccc(F)c(Br)n1 [compound 7114, ethyl 2-[(6-bromo-5-fluoropyridin-2-yl)sulfanyl]acetate] | 5

These molecules were tested on Malva (assay: Post-emergence herbicidal effect on potted weeds). Settings: 2-3 true leaves, up to 5 mg/pot, scale 0 (dead plants) to 5 (healthy, as control).
Type: in vivo
Method: as §1

Row | Structure (SMILES) | Average Herbicidal Effect, score
7 | CCOC(=O)CSc1ccc(F)c(Br)n1 [compound 7114, ethyl 2-[(6-bromo-5-fluoropyridin-2-yl)sulfanyl]acetate] | 4

The molecules below were run on Lettuce seeds (assay: Filter paper bioassay on germination and early development of Lettuce seeds). Settings: 144 h, lowest concentration causing malformation of radicle or shoots; visually assessed six days after beginning; 0 to 1 mmol/l; read-out: MEC, score (Minimal Effective Concentration, activity score) (converted).
Type: in vivo
Method: Materials: Seeds of Lettuce R. (Super-Jericho, non-sterilized) were obtained from Ben Shahar Moshe Ltd., 99% purity. The test compounds listed in Table 3 below were synthesized de novo or purchased from different vendors. Bioassays: Filter Paper Bioassays with Lettuce seeds were performed following Bertin et al. 2009 with modifications as described below. Seeds were placed on Whatman no. 1 filter paper (Whatman, Middlesex, U.K.) in Petri dishes (10 seeds per plate) with 2.0 ml of an aqueous solution of test material in a concentration ranging from 0 (control) to 1 mmol/l. The Petri dishes were arranged in a tray tilted at a 45-degree angle and were kept in the dark for 48 hours. Then trays with plates were transferred to the growth chamber with a 6/18 dark/light cycle for four days. Each experiment was performed in at least two repeats.
The development of plants' radicles and shoots was visually assessed six days after the beginning of the test to determine the Minimal Effective Concentration (MEC) of a test material. In the context of the invention, MEC is defined as the lowest concentration level of a test material that caused deviation (malformation of radicle or shoots).

Row | Structure (SMILES) | minimal effective concentration
8 | CCOCCOCCOC(=O)COc1ccc(Br)c(Br)n1 [compound 7172, 2-(2-ethoxyethoxy)ethyl [(5,6-dibromopyridin-2-yl)oxy]acetate] | 1 µM
9 | O=C(O)CNc1c(Cl)csc1Cl [compound 7147, 2-[(2,4-dichlorothiophen-3-yl)amino]acetic acid hydrochloride] | 10 µM
10 | O=C(O)CCCSc1ccc(Br)c(Br)n1 [compound 7174, 4-[(5,6-dibromopyridin-2-yl)sulfanyl]butanoic acid] | < 1 µM
11 | CCOC(=O)CSc1csc(Cl)n1 [compound 5850, ethyl 2-[(2-chloro-1,3-thiazol-4-yl)sulfanyl]acetate] | 10 µM
12 | COC(=O)Cc1ncsc1C#N [compound 7168, methyl 2-(5-cyano-1,3-thiazol-4-yl)acetate] | 10 µM
13 | CCCCOC(=O)C[S+]([O-])c1ccc(Br)c(Br)n1 (stereo not shown) [compound 6703, butyl (5,6-dibromopyridine-2-sulfinyl)acetate] | 10 µM
14 | CCOC(=O)c1c[nH]cc1CC#N [compound 7131, ethyl 4-(cyanomethyl)-1H-pyrrole-3-carboxylate] | 10 µM
15 | CCCCCCCCOC(=O)CSc1cccc(Br)n1 [compound 7106, octyl [(6-bromopyridin-2-yl)sulfanyl]acetate] | 10 µM
16 | O=C(O)CNc1nc(Cl)cs1 [compound 7125, 2-[(4-chloro-1,3-thiazol-2-yl)amino]acetic acid] | 10 µM
17 | CCOCCOCCOC(=O)CSc1ccc(Br)c(Br)n1 [compound 7139, 2-(2-ethoxyethoxy)ethyl [(5,6-dibromopyridin-2-yl)sulfanyl]acetate] | 1 µM
18 | O=C(O)CNc1ccc(Br)c(Br)n1 [compound 7122, 2-[(5,6-dibromopyridin-2-yl)amino]acetic acid] | 1 µM
19 | CCOC(=O)C(Cl)(Cl)c1csc(Cl)n1 [compound 7188, ethyl dichloro(2-chloro-1,3-thiazol-4-yl)acetate] | 100 µM
20 | O=C(O)CNc1cccc(Br)n1 [compound 6702, 2-[(6-bromopyridin-2-yl)amino]acetic acid] | 1 µM
21 | O=C(O)CSc1cccc(Br)n1 [compound 6688, [(6-bromopyridin-2-yl)sulfanyl]acetic acid] | 1 µM
22 | CCOC(=O)CSc1nc(Br)ccc1F [compound 7160, ethyl 2-[(6-bromo-3-fluoropyridin-2-yl)sulfanyl]acetate] | < 1 µM
23 | O=C(O)CS(=O)(=O)c1nc(Cl)sc1Cl [compound 7138, (2,5-dichloro-1,3-thiazol-4-sulfonyl)acetic acid] | 10 µM
24 | O=C(O)CC#Cc1nc(Cl)sc1Cl [compound 7145, 4-(2,5-dichloro-1,3-thiazol-4-yl)but-3-ynoic acid] | 1 µM
25 | O=C(O)CCCCNc1nc(Br)c(Br)cc1F [compound 7170, 5-[(5,6-dibromo-3-fluoropyridin-2-yl)amino]pentanoic acid] | 1 µM
26 | NCCCCNc1ccc(Br)c(Br)n1 [compound 6709, N1-(5,6-dibromopyridin-2-yl)butane-1,4-diamine] | 10 µM
27 | O=C(O)CS(=O)(=O)c1csc(Cl)n1 [compound 5851, (2-chloro-1,3-thiazol-4-sulfonyl)acetic acid] | 1 µM
28 | CCOC(=O)Sc1csc(Cl)n1 [compound 7189, S-(2-chloro-1,3-thiazol-4-yl) O-ethyl carbonothioate] | 10 µM

Row | Structure (SMILES) | minimal effective concentration
29 | O=C(O)CCCCNc1ccc(F)c(Br)n1 [compound 7165, 5-[(6-bromo-5-fluoropyridin-2-yl)amino]pentanoic acid] | 10 µM
30 | CCOC(=O)Cc1ccc(F)c(Br)n1 [compound 7117, ethyl (6-bromo-5-fluoropyridin-2-yl)acetate] | 10 µM
31 | CCCCOC(=O)CSc1ccc(Br)c(Br)n1 [compound 6700, butyl [(5,6-dibromopyridin-2-yl)sulfanyl]acetate] | 1 µM
32 | CCOC(=O)CSc1nc(Cl)cs1 [compound 7112, ethyl [(4-chloro-1,3-thiazol-2-yl)sulfanyl]acetate] | 10 µM
33 | O=C(O)C[S+]([O-])c1nc(Cl)sc1Cl (stereo not shown) [compound 7137, (2,5-dichloro-1,3-thiazole-4-sulfinyl)acetic acid] | 10 µM
34 | CCOC(=O)CSc1ccc(F)c(Br)n1 [compound 7114, ethyl 2-[(6-bromo-5-fluoropyridin-2-yl)sulfanyl]acetate] | < 1 µM
35 | O=C(O)CCSc1ccc(Br)c(Br)n1 [compound 7178, 3-[(5,6-dibromopyridin-2-yl)sulfanyl]propanoic acid] | 1 µM
36 | CC(Sc1ccc(Br)c(Br)n1)C(=O)O (stereo not shown) [compound 7182, 2-[(5,6-dibromopyridin-2-yl)sulfanyl]propanoic acid] | 10 µM
37 | CCOC(=O)CSc1nc(Cl)sc1Cl [compound 7119, ethyl 2-[(2,5-dichloro-1,3-thiazol-4-yl)sulfanyl]acetate] | 10 µM
38 | O=C(O)CSc1ccc(F)c(Br)n1 [compound 7151, [(6-bromo-5-fluoropyridin-2-yl)sulfanyl]acetic acid] | < 1 µM
39 | O=C(O)CNc1ccc(F)c(Br)n1 [compound 7148, 2-[(6-bromo-5-fluoropyridin-2-yl)amino]acetic acid] | 10 µM
40 | O=C(Cc1ccccc1)NCCCNc1cccc(Br)n1 [compound 7121, N-{3-[(6-bromopyridin-2-yl)amino]propyl}-2-phenylacetamide] | 10 µM
41 | O=C(O)CNc1nc(Br)c(Br)cc1F [compound 7169, 2-[(5,6-dibromo-3-fluoropyridin-2-yl)amino]acetic acid] | 1 µM
42 | O=C(O)CSc1nc(Br)ccc1Br [compound 7124, [(3,6-dibromopyridin-2-yl)sulfanyl]acetic acid] | 1 µM
43 | CCCCOC(=O)CSc1nc(Cl)ccc1Br [compound 6694, butyl [(3-bromo-6-chloropyridin-2-yl)sulfanyl]acetate] | 1 µM
44 | O=C(O)CSc1nc(Cl)cs1 [compound 7109, 2-[(4-chloro-1,3-thiazol-2-yl)sulfanyl]acetic acid] | 10 µM
45 | COC(=O)Cc1nc(Cl)sc1C#N [compound 7167, methyl 2-(2-chloro-5-cyano-1,3-thiazol-4-yl)acetate] | 10 µM
46 | CCOC(=O)CSc1cccc(Br)n1 [compound 6693, ethyl [(6-bromopyridin-2-yl)sulfanyl]acetate] | 1 µM
47 | O=C(O)c1csc(Cl)n1 [compound 7194, 2-chloro-1,3-thiazole-4-carboxylic acid] | 100 µM
48 | O=C(O)CCCCSc1ccc(Br)c(Br)n1 [compound 7187, 5-[(5,6-dibromopyridin-2-yl)sulfanyl]pentanoic acid] | 1 µM

Same assay, conditions: lowest concentration causing malformation of radicle or shoots; visually assessed six days after beginning; 0 to 1 mmol/l

Row | Structure (SMILES) | activity score
49 | O=C(Cc1ccccc1)NCCCCNc1cccc(Br)n1 [compound 7123, N-{4-[(6-bromopyridin-2-y1)amino]butyl}-2-phenylacetamide] | 4 (0.01 mM)
